Results on six molecules are retold here after the supplement of paper PMC11061612.

The test system of test [1] is CAL-148 (Breast Carcinoma). Kind of test: Bliss excess, mean over the matrix (fraction); higher = more synergy. Put shortly: (§1)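 Cell lines grown in DMEM/F12 or RPMI with 10% FBS were plated in 1536-well plates and held 24 hours at 37°C, 5% CO2 before 72 hours of exposure to two-drug dose matrices, with DMSO typically at 0.2%. CellTiter-Glo 2.0 luminescence gave viability, which was converted to inhibition. Vehicle wells were set to 0 and blank wells to 1. Combination Emax is the second-highest inhibition in the matrix, and Bliss excess is the observed combination effect minus the expected EA + EB − EA·EB, where EA and EB are the single-agent effects.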

Test [2] relates to CCRF-CEM (T-Lymphoblastic Leukemia). The test is described as above. Put shortly:
as §1

In test [3] the test system is CaR-1 (Colorectal Carcinoma). The description is as above. Put shortly: as §1
In test [4] the test system is DoTc2-4510 (Cervical Carcinoma). The description is as above. Put shortly: as §1
The test system of test [5] is HCC-78 (Lung Adenocarcinoma). The description is as above. Summed up:
as §1

The subject of test [6] is HO-1-N-1 (Oral Cavity Carcinoma). The description is as above. Summed up: as §1
Test [7] concerns HT-1376 (Bladder Carcinoma). Described as above. Put shortly:
as §1

Another test deals with KELLY (Neuroblastoma). Described as above. Put shortly: as §1
Test [8] has as its system LB831-BLC (Bladder Carcinoma). The description is as above. Put shortly: as §1
The subject of test [9] is LS-180 (Colorectal Carcinoma). The description is as above. Put shortly:
as §1

Test [10] concerns ME-1 (Acute Myeloid Leukemia). Described as above. Put shortly: as §1
The subject of a further test is NB10 (Neuroblastoma). The test is described as above. Summed up: as §1
Test [11] concerns NCI-H82 (Small Cell Lung Carcinoma). Described as above. Summed up: as §1
In test [12] the test system is RO82-W-1 (Thyroid Gland Carcinoma). The test is described as above. Put shortly:
as §1

Test [13] deals with Ramos-2G6-4C10 (Burkitt's Lymphoma). Described as above. Put shortly: as §1
For test [14], the system named is TE-15 (Esophageal Squamous Cell Carcinoma). The description is as above. Summed up:
as §1

The next test concerns HOS (Osteosarcoma). In words: combination Emax (second highest fraction inhibited in the dose matrix, 72 h); higher = more inhibition; extreme values may be limits of the assay. Put shortly: as §1
Test [15] deals with LB831-BLC (Bladder Carcinoma). The test is described as above. Put shortly: as §1
Test [16] deals with LS-180 (Colorectal Carcinoma). The test is described as above. Summed up:
as §1

Test [17] has as its system RO82-W-1 (Thyroid Gland Carcinoma). Described as above. Summed up:
as §1

Structures are written as SMILES.
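For Bliss excess, mean over the matrix in this document: after 72 h of two-drug dosing.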

As to `C=CCn1c(=O)c2cnc(Nc3ccc(N4CCN(C)CC4)cc3)nc2n1-c1cccc(C(C)(C)O)n1` [AZD1775] + CCc1c2c(nc3ccc(O)cc13)-c1cc3c(c(=O)n1C2)COC(=O)[C@]3(O)CC [SN-38] (first compound max 1 µM, partner max 0.3 µM), the Bliss excess in test [1] is -0.0022; in test [2], -0.0423; in [3] it was -0.0429; in test [4], -0.0173; in test [5], 0.0002; in test [6], -0.0092. Also, the Bliss excess was -0.0194 in test [7]; -0.0534 with KELLY (Neuroblastoma); 0.0518 in test [8]; -0.115 in test [9]; -0.0047 in [10]; -0.141 with NB10 (Neuroblastoma). For the same molecule, the Bliss excess in [11] was -0.0569; in [12], -0.0352; in test [13], 0.0943; in [14], -0.0211. For the same molecule, the “combination Emax” value in the test with HOS (Osteosarcoma) was 0.849; in test [15], 0.875; in test [16], 0.806; in test [17] it was 0.263.
As for `C=CCn1c(=O)c2cnc(Nc3ccc(N4CCN(C)CC4)cc3)nc2n1-c1cccc(C(C)(C)O)n1` [AZD1775] + Nc1ccn([C@@H]2O[C@H](CO)[C@@H](O)C2(F)F)c(=O)n1 [Gemcitabine] (first compound max 1 µM, partner max 0.3 µM), the Bliss excess in test [1] is 0.0035; in [2], 0.0584; in [3] it was -0.0001; in test [4], 0.033; in test [5], 0.0795; in test [6], 0.0188. Further, the Bliss excess was -0.0432 in [7]; 0.0306 in the test on KELLY (Neuroblastoma); 0.0909 in [8]; -0.0906 in test [9]; -0.0044 in test [10]; 0.0509 in the test with NB10 (Neuroblastoma). Moreover, the Bliss excess in [11] was -0.0404; in [12], -0.0271; in test [13], 0.186; in test [14], 0.042. In addition, the “combination Emax” value in the test with HOS (Osteosarcoma) amounted to 0.596; in test [15], 0.872; in test [16], 0.754; in test [17], 0.194.
Consider `CN(CCO)CC[C@H](CSc1ccccc1)Nc1ccc(S(=O)(=O)NC(=O)c2ccc(N3CCC([C@@H](O)c4ccccc4-c4ccc(Cl)cc4)CC3)cc2)cc1S(=O)(=O)C(F)(F)F` [AZD4320] + CC(=O)O[C@H]1C(=O)[C@@]2(C)[C@H]([C@H](OC(=O)c3ccccc3)[C@]3(O)C[C@H](OC(=O)[C@H](O)[C@@H](NC(=O)c4ccccc4)c4ccccc4)C(C)=C1C3(C)C)[C@]1(OC(C)=O)CO[C@@H]1C[C@@H]2O [Paclitaxel] (first compound max 1 µM, 7x7, partner max 3 µM), for which the Bliss excess in test [1] was 0.0761; in test [2] it was -0.0072; in test [3], 0.0892; in test [4] it was 0.111; in test [5], 0.168; in [6], 0.0178. The Bliss excess in [7] was 0.0857; in the test on KELLY (Neuroblastoma), -0.0068; in [8], 0.104; in test [9], -0.0382; in test [10] it was 0.0994; in the test on NB10 (Neuroblastoma) it was 0.0462. The Bliss excess is -0.0552 in test [11], 0.332 in [12], -0.151 in test [13] and 0.0118 in test [14]. Also, the “combination Emax” value in the test with HOS (Osteosarcoma) is 1; in test [15] it was 0.965; in test [16], 0.94; in test [17], 0.947.
In the case of `CN(CCO)CC[C@H](CSc1ccccc1)Nc1ccc(S(=O)(=O)NC(=O)c2ccc(N3CCC([C@@H](O)c4ccccc4-c4ccc(Cl)cc4)CC3)cc2)cc1S(=O)(=O)C(F)(F)F` [AZD4320] + CS(=O)(=O)CCNCc1ccc(-c2ccc3ncnc(Nc4ccc(OCc5cccc(F)c5)c(Cl)c4)c3c2)o1 [Lapatinib] (first compound max 1 µM, 7x7, partner max 10 µM), the Bliss excess in [1] is -0.0411; in test [2] it was 0.0305; in test [3] it was -0.0122; in [4] it was 0.051; in test [5], -0.0248; in test [6], 0.0439. The Bliss excess in test [7] was 0.0125; with KELLY (Neuroblastoma), 0.0272; in test [8], 0.0245; in test [9], -0.0521; in test [10], 0.0937; in the test on NB10 (Neuroblastoma) it was -0.0204. The Bliss excess was 0.0747 in [11], 0.0002 in [12], 0.117 in test [13] and -0.0004 in [14]. For the same molecule, the “combination Emax” value with HOS (Osteosarcoma) was determined as 0.348; in test [15] it was 0.858; in test [16], 0.505; in test [17], 0.646.
As for `CN(CCO)CC[C@H](CSc1ccccc1)Nc1ccc(S(=O)(=O)NC(=O)c2ccc(N3CCC([C@@H](O)c4ccccc4-c4ccc(Cl)cc4)CC3)cc2)cc1S(=O)(=O)C(F)(F)F` [AZD4320] + Nc1ccn([C@@H]2O[C@H](CO)[C@@H](O)C2(F)F)c(=O)n1 [Gemcitabine] (first compound max 1 µM, 7x7, partner max 0.3 µM), the Bliss excess was 0.0502 in test [1]; 0.0061 in test [2]; 0.0125 in test [3]; 0.0764 in test [4]; -0.0215 in test [5]; -0.0049 in test [6]. In addition, the Bliss excess in test [7] is -0.0644; in the test with KELLY (Neuroblastoma) it was 0.0014; in test [8] it was -0.0192; in test [9] it was -0.0907; in [10] it was 0.0049; in the test with NB10 (Neuroblastoma), -0.0457. Moreover, the Bliss excess in test [11] was 0.016; in test [12] it was -0.0237; in test [13], -0.0368; in test [14], 0.0164. For the same molecule, the “combination Emax” value in the test on HOS (Osteosarcoma) stood at 0.829; in test [15] it was 0.881; in test [16], 0.66; in test [17], 0.572.
With `Cc1c2c(nn1C)CSCc1cc(n(C)n1)CSc1cc(c3ccccc3c1)OCCCc1c(C(=O)O)n(C)c3c-2c(Cl)ccc13` [AZD5991] + CC(=O)O[C@H]1C(=O)[C@@]2(C)[C@H]([C@H](OC(=O)c3ccccc3)[C@]3(O)C[C@H](OC(=O)[C@H](O)[C@@H](NC(=O)c4ccccc4)c4ccccc4)C(C)=C1C3(C)C)[C@]1(OC(C)=O)CO[C@@H]1C[C@@H]2O [Paclitaxel] (first compound max 1 µM, 7x7, partner max 3 µM), the Bliss excess was 0.0436 in [1]; -0.0339 in test [2]; 0.038 in test [3]; -0.0508 in [4]; 0.11 in test [5]; 0.0062 in test [6]. Further, the Bliss excess was -0.0424 in test [7]; 0.0544 in the test with KELLY (Neuroblastoma); 0.0261 in [8]; -0.033 in test [9]; -0.0368 in [10]; 0.0264 in the test with NB10 (Neuroblastoma). In addition, the Bliss excess was -0.0392 in test [11], -0.023 in test [12], -0.104 in test [13] and 0.0224 in test [14]. Moreover, the “combination Emax” value in the test with HOS (Osteosarcoma) stood at 0.964; in [15], 0.733; in [16], 0.822; in test [17], 0.401.
